Values quoted from earlier work as cited in PMC10464202, “Discovery of novel JAK1 inhibitors through combining machine learning, structure-based pharmacophore modeling and bio-evaluation” (Journal of Translational Medicine, 2023).

Target: JAK1 (Homo sapiens, UniProt P23458)
Conditions: JAK1 inhibitors obtained by literature search; read-out: IC50 of training set (Hiphop)

Chain of JAK1 (P23458 whole entry): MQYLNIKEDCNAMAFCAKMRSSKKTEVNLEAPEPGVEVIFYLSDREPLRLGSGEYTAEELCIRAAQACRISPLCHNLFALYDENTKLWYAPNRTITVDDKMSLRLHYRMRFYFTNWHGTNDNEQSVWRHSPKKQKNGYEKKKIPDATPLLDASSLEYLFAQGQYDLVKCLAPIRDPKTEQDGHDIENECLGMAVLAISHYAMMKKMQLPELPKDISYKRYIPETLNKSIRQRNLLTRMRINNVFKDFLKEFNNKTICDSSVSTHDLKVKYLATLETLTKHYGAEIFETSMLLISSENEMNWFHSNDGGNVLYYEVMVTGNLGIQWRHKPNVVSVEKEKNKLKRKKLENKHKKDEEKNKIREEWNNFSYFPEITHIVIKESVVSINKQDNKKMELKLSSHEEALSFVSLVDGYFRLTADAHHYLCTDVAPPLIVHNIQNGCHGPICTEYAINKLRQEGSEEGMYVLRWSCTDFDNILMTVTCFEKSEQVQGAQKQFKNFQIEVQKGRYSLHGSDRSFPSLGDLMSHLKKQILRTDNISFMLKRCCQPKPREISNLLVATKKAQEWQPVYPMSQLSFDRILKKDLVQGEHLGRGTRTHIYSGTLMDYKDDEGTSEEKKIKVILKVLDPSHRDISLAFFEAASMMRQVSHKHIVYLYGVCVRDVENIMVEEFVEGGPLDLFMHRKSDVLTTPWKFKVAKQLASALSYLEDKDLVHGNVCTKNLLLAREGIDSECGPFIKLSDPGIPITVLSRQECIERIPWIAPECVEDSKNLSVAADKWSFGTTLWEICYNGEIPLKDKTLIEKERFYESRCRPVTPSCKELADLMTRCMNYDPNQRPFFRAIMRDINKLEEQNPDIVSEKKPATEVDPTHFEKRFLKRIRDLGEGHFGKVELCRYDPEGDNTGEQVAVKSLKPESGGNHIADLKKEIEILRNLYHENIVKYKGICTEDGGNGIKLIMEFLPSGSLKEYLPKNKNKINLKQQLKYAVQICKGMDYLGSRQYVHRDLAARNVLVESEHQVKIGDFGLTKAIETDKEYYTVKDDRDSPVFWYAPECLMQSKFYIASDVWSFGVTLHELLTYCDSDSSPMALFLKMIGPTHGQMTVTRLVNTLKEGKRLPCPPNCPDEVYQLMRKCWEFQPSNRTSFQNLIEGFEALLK

IC50: 4 nM
Compound: Cc1ccc(C(=O)Nc2cccc3c(-c4nc(Nc5cnn(C)c5)ncc4C)c[nH]c23)c(C)n1 [Compound 5]
